The experiment relates to Endothelial cell. The experiment is described as follows: Binding affinity to DHEA receptor in bovine aortic endothelial cells exposed to UV for 15 mins at 5 nM after 1 hr by chemiluminescence. It is filed as cell-based. Particulars: Bos taurus.

The record followed here is ChEMBL document CHEMBL1158516, “Synthesis and application of a photoaffinity analog of dehydroepiandrosterone (DHEA)” (Bioorg Med Chem Lett, 2010).

Molecules are shown by their SMILES. The source made the active and inactive calls. No cut-off for these calls is given here.

Take `O=C(CCCC[C@@H]1SC[C@@H]2NC(=O)N[C@@H]21)NCCCC[C@H](NC(=O)c1ccc(C(=O)c2ccccc2)cc1)C(=O)O`: the outcome was inactive.
For the compound `C[C@]12CC[C@H](O)CC1=CC[C@@H]1[C@@H]2CC[C@]2(C)/C(=N/OCC(=O)NCCCCCCNC(=O)[C@H](CCCCNC(=O)CCCC[C@@H]3SC[C@@H]4NC(=O)N[C@@H]43)NC(=O)c3ccc(C(=O)c4ccccc4)cc3)CC[C@@H]12`, the outcome was Active.
